What follows are molecules tested on HCV replicon (assay: HCV replicon replication assay (NPT ELISA) in Huh-7 replicon-containing cells). Details: Hepatitis C virus, 72 h; HCV replicon in Huh-7 cells, three days incubation; read-out: EC50.
Assay type: cell-based
Method in brief: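 Replication was scored by capture ELISA of neomycin phosphotransferase, whose level tracks replicon replication, after graded compound treatment. The cells were Huh-7 harbouring an HCV-IRES/neo/EMCV-IRES/NS3–NS5B/3′-NTR replicon, plated at 6000-7500 cells/well and dosed 24 h later at 60-70% confluence; interferon alpha was the positive control.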
`C=CC1C[C@]1(NC(=O)[C@@H]1C[C@@H](Oc2cc(-c3ccccc3)nc3cc(OC)ccc23)CN1C(=O)[C@@H](CC(=O)N1CCCC(C(=O)OCC)C1)C(C)(C)C)C(=O)NS(=O)(=O)C1CC1` (stereo partly drawn) [Compound 160, ethyl 1-((S)-3-((2S,4R)-2-((1R,2S)-1-(cyclopropyl-sulfonylcarbamoyl)-2-vinylcyclopropyl-carbamoyl)-4-(7-methoxy-2-phenylquinolin-4-yloxy)pyrrolidine-1-carbonyl)-4,4-dime-thylpentanoyl)piper-idine-3-carboxylate] was tested, and the EC50 was < 1000 nM. For `C=C[C@@H]1C[C@]1(NC(=O)[C@@H]1C[C@@H](Oc2cc(-c3ccccc3)nc3cc(OC)ccc23)CN1C(=O)[C@@H](CC(=O)N1CCC(N(C)C(=O)OC(C)(C)C)C1)C(C)(C)C)C(=O)NS(=O)(=O)C1CC1` (stereo partly drawn) [Compound 161, tert-butyl 1-((S)-3-((2S,4R)-2-((1R,2S)-1-(cyclopropyl-sulfonylcarbamoyl)-2-vinylcyclopropyl-carbamoyl)-4-(7-methoxy-2-phenylquinolin-4-yloxy)pyrrolidine-1-carbonyl)-4,4-dimethyl-pentanoyl)pyrrolidin-3-yl(methyl)carbamate], the EC50 was < 1000 nM. `C=CC1C[C@]1(NC(=O)[C@@H]1C[C@@H](Oc2cc(-c3ccccc3)nc3cc(OC)ccc23)CN1C(=O)[C@@H](CC(=O)N1CCCC(C(F)(F)F)C1)C(C)(C)C)C(=O)NS(=O)(=O)C1CC1` (stereo partly drawn) [Compound 162, (2S,4R)-1-((2S)-2-tert-butyl-4-oxo-4-(3-(trifluoromethyl)pi-peridin-1-yl)butanoyl)-N-((1R,2S)-1-(cyclopropylsulfonyl-carbamoyl)-2-vinylcyclopropyl)-4-(7-methoxy-2-phenylquinolin-4-yloxy)pyrrolidine-2-carboxamide] was tested, and the EC50 was < 1000 nM. With `C=CC1C[C@]1(NC(=O)[C@@H]1C[C@@H](Oc2cc(-c3ccccc3)nc3cc(OC)ccc23)CN1C(=O)[C@@H](CC(=O)N1C(C)CCCC1C)C(C)(C)C)C(=O)NS(=O)(=O)C1CC1` (stereo partly shown) [Compound 163] the EC50 was < 1000 nM. For `C=CC1C[C@]1(NC(=O)[C@@H]1C[C@@H](Oc2cc(-c3ccccc3)nc3cc(OC)ccc23)CN1C(=O)[C@@H](CC(=O)N1CCN(C(=O)OC(C)(C)C)CC1)C(C)(C)C)C(=O)NS(=O)(=O)C1CC1` (stereo partly drawn) [Compound 164, tert-butyl 4-((S)-3-((2S,4R)-2-((1R,2S)-1-(cyclopropyl-sulfonylcarbamoyl)-2-vinylcyclopropyl-carbamoyl)-4-(7-methoxy-2-phenylquinolin-4-yloxy)pyrrolidine-1-carbonyl)-4,4-dime-thylpentanoyl)piper-azine-1-carboxylate], the EC50 was < 1000 nM. `C=C[C@@H]1C[C@]1(NC(=O)[C@@H]1C[C@@H](Oc2cc(-c3ccccn3)nc3cc(OC)ccc23)CN1C(=O)[C@@H](CC(=O)N1CCCCC1)C(C)(C)C)C(=O)NS(=O)(=O)C1CC1` [Compound 165, (2S,4R)-1-((S)-2-tert-butyl-4-oxo-4-(piperidin-1-yl)butanoyl)-N-((1R,2S)-1-(cyclo-propylsulfonyl-carbamoyl)-2-vinyl-cyclopropyl)-4-(7-methoxy-2-(pyridin-2-yl)quinolin-4-yloxy)pyrrolidine-2-carboxamide] was tested, and the EC50 was < 1000 nM. With `C=C[C@@H]1C[C@]1(NC(=O)[C@@H]1C[C@@H](Oc2cc(-c3ccccn3)nc3cc(OC)ccc23)CN1C(=O)[C@@H](CC(=O)N1CCOCC1)C(C)(C)C)C(=O)NS(=O)(=O)C1CC1` [Compound 166, (2S,4R)-1-((S)-2-tert-butyl-4-morpholino-4-oxobutanoyl)-N-((1R,2S)-1-(cyclopropylsulfonyl-carbamoyl)-2-vinylcyclopropyl)-4-(7-methoxy-2-(pyridin-2-yl)quinolin-4-yloxy)pyrrolidine-2-carboxamide] the EC50 was < 1000 nM. With `C=C[C@@H]1C[C@]1(NC(=O)[C@@H]1C[C@@H](Oc2cc(-c3ccccc3)nc3cc(OC)ccc23)CN1C(=O)[C@@H](CC(=O)N1CCC[C@H](NC(=O)OC(C)(C)C)C1)C(C)(C)C)C(=O)NS(=O)(=O)C1CC1` [Compound 167] the EC50 was < 1000 nM. In the case of `C=CC1C[C@]1(NC(=O)[C@@H]1C[C@@H](Oc2cc(-c3ccccc3)nc3cc(OC)ccc23)CN1C(=O)[C@@H](CC(=O)N1CCCC(CNC(=O)OC(C)(C)C)C1)C(C)(C)C)C(=O)NS(=O)(=O)C1CC1` (stereo partly drawn) [Compound 168, tert-butyl (1-((S)-3-((2S,4R)-2-((1R,2S)-1-(cyclopropyl-sulfonylcarbamoyl)-2-vinylcyclopropyl-carbamoyl)-4-(7-methoxy-2-phenylquinolin-4-yloxy)pyrrolidine-1-carbonyl)-4,4-dime-thylpentanoyl)piper-idin-3-yl)methylcarbamate], the EC50 is reported as < 1000 nM. With `C=C[C@@H]1C[C@]1(NC(=O)[C@@H]1C[C@@H](Oc2cc(-c3ccccc3)nc3cc(OC)ccc23)CN1C(=O)[C@@H](CC(=O)N1C2CCC1CC(=O)C2)C(C)(C)C)C(=O)NS(=O)(=O)C1CC1` [Compound 169, (2S,4R)-1-((2S)-2-tert-butyl-4-oxo-4-(3-oxo-8-aza-bicyclo[3.2.1]octan-8-yl)butanoyl)-N-((1R,2S)-1-(cyclopropyl-sulfonylcarbamoyl)-2-vinylcyclopropyl)-4-(7-methoxy-2-phenylquinolin-4-yloxy)pyrrolidine-2-carboxamide] the EC50 was < 1000 nM. In the case of `C=C[C@@H]1C[C@]1(NC(=O)[C@@H]1C[C@@H](Oc2cc(-c3ccccc3)nc3cc(OC)ccc23)CN1C(=O)[C@@H](CC(=O)N1CC2C3CCC(C)(O3)C2C1)C(C)(C)C)C(=O)NS(=O)(=O)C1CC1` (stereo partly shown) [Compound 170], the EC50 is reported as < 1000 nM. With `C=C[C@@H]1C[C@]1(NC(=O)[C@@H]1C[C@@H](NC(=O)c2cc(-c3ccccc3)nc3ccccc23)CN1C(=O)[C@@H](CC(=O)N1CCCCC1)C(C)(C)C)C(=O)NS(=O)(=O)C1CC1` [Compound 171, N-((3R,5S)-1-((S)-2-tert-butyl-4-oxo-4-(piperidin-1-yl)butanoyl)-5-((1R,2S)-1-(cyclopropyl-sulfonylcarbamoyl)-2-vinylcyclo-propylcarbamo-yl)pyrrolidin-3-yl)-2-phenylquinoline-4-carboxamide] the EC50 was < 1000 nM. With `C=C[C@@H]1C[C@]1(NC(=O)[C@@H]1C[C@@H](Oc2cc(-c3ccccc3)nc3cc(OC)ccc23)CN1C(=O)[C@@H](CC(=O)N1C[C@@H]2C[C@H]1CN2C(=O)OC(C)(C)C)C(C)(C)C)C(=O)NS(=O)(=O)C1CC1` [Compound 172, (1S,4S)-tert-butyl 5-((S)-3-((2S,4R)-2-((1R,2S)-1-(cyclopropyl-sulfonylcarbamoyl)-2-vinylcyclopropyl-carbamoyl)-4-(7-methoxy-2-phenylquinolin-4-yloxy)pyrrolidine-1-carbonyl)-4,4-dimethylpentanoyl)-2,5-diazabi-cyclo[2.2.1]heptane-2-carboxylate] the EC50 was < 1000 nM. For `C=C[C@@H]1C[C@]1(NC(=O)[C@@H]1C[C@@H](Oc2cc(-c3ccccc3)nc3cc(OC)ccc23)CN1C(=O)[C@@H](CC(=O)N1CC2CC1CO2)C(C)(C)C)C(=O)NS(=O)(=O)C1CC1` (stereo partly drawn) [Compound 174, (2S,4R)-1-((2S)-2-(2-(2-oxa-5-aza-bicyclo[2.2.1]heptan-5-yl)-2-oxoethyl)-3,3-dimethylbutanoyl)-N-((1R,2S)-1-(cyclopropyl-sulfonylcarbamoyl)-2-vinylcyclopropyl)-4-(7-methoxy-2-phenylquinolin-4-yloxy)pyrrolidine-2-carboxamide], the EC50 was < 1000 nM. For `C=C[C@@H]1C[C@]1(NC(=O)[C@@H]1C[C@@H](Oc2cc(-c3ccccc3)nc3cc(OC)ccc23)CN1C(=O)[C@@H](CC(=O)N1CCC(N(C2CC2)S(=O)(=O)c2cccc(C(F)(F)F)c2)CC1)C(C)(C)C)C(=O)NS(=O)(=O)C1CC1` [Compound 175, (2S,4R)-1-((S)-2-tert-butyl-4-(4-(N-cyclopropyl-3-(tri-fluoromethyl)phenyl-sulfonamido)piper-idin-1-yl)-4-oxobutanoyl)-N-((1R,2S)-1-(cyclopropyl-sulfonylcarbamoyl)-2-vinylcyclopropyl)-4-(7-methoxy-2-phenylquinolin-4-yloxy)pyrrolidine-2-carboxamide], the EC50 was < 1000 nM. With `C=C[C@@H]1C[C@]1(NC(=O)[C@@H]1C[C@@H](Oc2cc(-c3ccccc3)nc3cc(OC)ccc23)CN1C(=O)[C@@H](CC(=O)N1CCCC1C(F)(F)F)C(C)(C)C)C(=O)NS(=O)(=O)C1CC1` (stereo partly drawn) [Compound 176, (2S,4R)-1-((2S)-2-tert-butyl-4-oxo-4-(2-(trifluoro-methyl)pyrrolidin-1-yl)butanoyl)-N-((1R,2S)-1-(cyclopropylsulfonyl-carbamoyl)-2-vinylcyclopropyl)-4-(7-methoxy-2-phenylquinolin-4-yloxy)pyrrolidine-2-carboxamide] the EC50 was < 1000 nM. With `C=C[C@@H]1C[C@]1(NC(=O)[C@@H]1C[C@@H](NC(=O)n2c3ccccc3c3ccccc32)CN1C(=O)[C@@H](CC(=O)N1CCCCC1)C(C)(C)C)C(=O)NS(=O)(=O)C1CC1` [Compound 177, N-((3R,5S)-1-((S)-2-tert-butyl-4-oxo-4-(piperidin-1-yl)butanoyl)-5-((1R,2S)-1-(cyclopropyl-sulfonylcarbamoyl)-2-vinylcyclopropyl-carbamoyl)pyr-rolidin-3-yl)-9H-carbazole-9-carboxamide] the EC50 was < 1000 nM. With `C=C[C@@H]1C[C@]1(NC(=O)[C@@H]1C[C@@H](NC(=O)n2c3ccccc3c3ccccc32)CN1C(=O)[C@@H](CC(=O)N1CCCC(F)(F)C1)C(C)(C)C)C(=O)NS(=O)(=O)C1CC1` [Compound 178, N-((3R,5S)-1-((S)-2-tert-butyl-4-(3,3-difluoropiperidin-1-yl)-4-oxobutanoyl)-5-((1R,2S)-1-(cyclo-propylsulfonyl-carbamoyl)-2-vinylcyclopropyl-carbamoyl)pyrrolidin-3-yl)-9H-carbazole-9-carboxamide] the EC50 was < 1000 nM. With `C=C[C@@H]1C[C@]1(NC(=O)[C@@H]1C[C@@H](Oc2cc(-c3ccccn3)nc3c(Cl)c(OC)ccc23)CN1C(=O)[C@@H](CC(=O)N1CCCCC1)C(C)(C)C)C(=O)NS(=O)(=O)C1CC1` [Compound 179, (2S,4R)-1-((S)-2-tert-butyl-4-oxo-4-(piperidin-1-yl)butanoyl)-4-(8-chloro-7-methoxy-2-(pyridin-2-yl)quinolin-4-yloxy)-N-((1R,2S)-1-(cyclopropyl-sulfonylcarbamoyl)-2-vinylcyclo-propyl)pyrrolidine-2-carboxamide] the EC50 was < 1000 nM.
